# Test results published in publication PMC6017406, “Synthesis and Physicochemical Evaluation of Entecavir-Fatty Acid Conjugates in Reducing Food Effect on Intestinal Absorption” (Molecules : A Journal of Synthetic Chemistry and Natural …, 2018).
# Read-outs that look alike come from different tables or passages of the source.
# What was measured:
# [1] = In vitro dissolution test in biorelevant media (USP 29 paddle method); assay type: physicochemical
# Method: The United States Pharmacopeia 29 paddle method was used to assess the release profile of EV-C12 powder using a VK 7000 dissolution tester (Varian Medical Industries, Palo Alto, CA, USA). The EV-FA powder equivalent to 0.5 mg of the parent compound was immersed in 900 mL of biorelevant media maintained at 37 °C ± 0.1 °C at a paddle speed of 50 rpm. At fixed time intervals, aliquots (about 4 mL) were drawn and centrifuged at 13,000 rpm for 10 min. An equal volume of the test medium pre-warmed at 37 °C ± 0.1 °C was used for immediate replacement. The supernatant was appropriately diluted with methanol and the drug concentration in the supernatant was assayed by HPLC, as described earlier.
# [2] = set-up: method as in earlier work; settings: oral 0.5 mg with high-fat meal (945 kcal, 54.6 g fat); cited from earlier work
# [3] = set-up: method as in PMID 27503646; settings: cited from earlier work
# [4] = Equilibrium solubility in biorelevant media; assay type: physicochemical; settings: for solubility thermodynamic at 3 days: thermodynamic from solid, mean ± SD (n = 3)
# Method: The equilibrium solubilities of lipidic prodrugs in biorelevant media such as FaSSGF, FeSSGF, FaSSIF, and FeSSIF [32, 33] were assessed. FaSSGF was prepared with 0.08 mM of sodium taurocholate, 0.02 mM of lecithin, and 34.2 mM of NaCl in 1000 mL of distilled water (pH 1.6). FaSSIF was prepared with 3 mM of sodium taurocholate, 0.2 mM of lecithin, 19.1 mM of malate, 68.62 mM of NaCl, and 34.8 mM of NaOH in 1000 mL of distilled water (pH 6.5, osmolality: 270 mOsm∙kg^−1). FeSSGF was prepared with 230.0 mM of NaCl, 17.1 mM of acetic acid, and 29.75 mM of sodium acetate, in 1000 mL of mixture of milk (full fat 3.5%) and distilled water (pH 5.0, osmolality: 400 mOsm∙kg^−1). FeSSIF was prepared with 10 mM of sodium taurocholate, 2 mM of lecithin, 5 mM of glyceryl monooleate, 0.8 mM of sodium oleate, 55.0 mM of malate, 125.5 mM of NaCl, and 81.6 mM of NaOH in 1000 mL of distilled water (pH 5.8, osmolality: 390 mOsm∙kg^−1).
# An excess amount of drug (500 mg) was added to biorelevant media in a scintillation vial. Drug suspensions were sonicated for 30 min and then shaken at 37 °C for 3 days using a shaking incubator. Samples were then centrifuged at 13,000 rpm for 10 min and the supernatant was appropriately diluted with mobile phase. The concentration of EV-FA in the medium was analyzed using HPLC as described above.
# [5] = set-up: method as in PMID 14498759; settings: humans; cited from earlier work
# [6] = Hydrolysis in simulated gastric fluid (pH 1.2); assay type: physicochemical; settings: simulated gastric fluid pH 1.2, 37 °C, after 12 h, 20 μg/mL
# Method: To estimate the chemical stability of these synthesized ester prodrugs in the stomach, their hydrolysis behavior was evaluated in simulated gastric fluid (pH 1.2). Each compound (10 mg) was dissolved in ethanol (10 mL) and then serially diluted with simulated gastric fluid at a drug concentration of 20 μg/mL. […]
# [7] = fassgf or other biorelevant, FaSSGF pH 1.6, 37 °C, read-out: Equilibrium solubility FaSSGF
# [8] = fassgf or other biorelevant, FeSSGF pH 5.0, 37 °C, read-out: Equilibrium solubility FeSSGF
# [9] = FaSSIF pH 6.5, 37 °C, read-out: Equilibrium solubility FaSSIF
# [10] = FeSSIF pH 5.8, 37 °C, read-out: Equilibrium solubility FeSSIF
# [11] = all biorelevant media, 37 °C, 50 rpm
"solubility thermodynamic at 3 days [4, 7] [µg/mL]","solubility thermodynamic at 3 days [4, 8] [µg/mL]","solubility thermodynamic at 3 days [4, 9] [µg/mL]","solubility thermodynamic at 3 days [4, 10] [µg/mL]",Hydrolyzed percentage [6] [%],SMILES,other results
8940 ± 92,2152 ± 13,1620 ± 23,2240 ± 52,,"C=C1[C@H](CO)[C@@H](O)C[C@@H]1n1cnc2c(=O)nc(N)[nH]c21 [EV, 2-amino-9-[(1S,3R,4S)-4-hydroxy-3-(hydroxymethyl)-2-methylidenecyclopentyl]-3H-purin-6-one, reference compound]","Time to complete release ([1]; all biorelevant media (FaSSGF, FaSSIF, FeSSGF, FeSSIF), 37 °C, 50 rpm): ≤ 15 min; Decrease in maximum drug concentration in plasma [2]: 44–46%; pKa [3]: 10.5; Solubility ([3]; distilled water at 25 °C): 2400 µg/mL; logP ([3]; pH 4 to 10): −1.110; solubility at 3 days ([4]; biorelevant media (FaSSGF, fassgf or other biorelevant, thermodynamic from solid), FaSSGF, FaSSIF, FeSSGF, FeSSIF, 37 °C, read-out: Aqueous solubility in all media tested): > 1600 µg/mL"
,,,,,Nc1ncnc2c1ncn2CCOCP(=O)(O)O [hydrophilic parent compound],Oral bioavailability [5]: 12%
4.74 ± 0.3,38.2 ± 1.5,5.74 ± 0.3,36.7 ± 1.2,46.2,"C=C1[C@H](COC(=O)CCCCCCC)[C@@H](O)C[C@@H]1n1cnc2c(=O)[nH]c(N)nc21 [EV-C8, ((1R,3S,5S)-3-(2-Amino-6-oxo-1H-purin-9(6H)-yl)-5-hydroxy-2-methylenecyclopentyl)methyl octanoate]",
4.41 ± 0.1,61.9 ± 3.2,6.47 ± 0.6,66.6 ± 4.4,44.4,"C=C1[C@H](COC(=O)CCCCCCCCC)[C@@H](O)C[C@@H]1n1cnc2c(=O)[nH]c(N)nc21 [EV-C10, ((1R,3S,5S)-3-(2-Amino-6-oxo-1H-purin-9(6H)-yl)-5-hydroxy-2-methylenecyclopentyl)methyl decanoate]",
,,,,,CC(C)(C)C(=O)OCOP(=O)(COCCn1cnc2c(N)ncnc21)OCOC(=O)C(C)(C)C [adefovir dipivoxil],Oral bioavailability [5]: 59%
4.84 ± 0.5,24.9 ± 1.4,5.54 ± 0.6,25.2 ± 2.3,59.1,"C=C1[C@H](COC(=O)CCCCC)[C@@H](O)C[C@@H]1n1cnc2c(=O)[nH]c(N)nc21 [EV-C6, (1R,3S,5S)-3-(2-Amino-6-oxo-1H-purin-9(6H)-yl)-5-hydroxy-2-methylenecyclopentyl)methyl hexanoate]",
4.82 ± 0.2,76.6 ± 4,6.5 ± 0.2,78.8 ± 7.7,22.5,"C=C1[C@H](COC(=O)CCCCCCCCCCC)[C@@H](O)C[C@@H]1n1cnc2c(=O)[nH]c(N)nc21 [EV-C12, ((1R,3S,5S)-3-(2-Amino-6-oxo-1H-purin-9(6H)-yl)-5-hydroxy-2-methylenecyclopentyl)methyl dodecanoate]","Percent released within 30 min [1, 11]: more than 50%; Percent released/dissolved within 2 h [1, 11]: more than 90%; Concentration of EV in dissolution medium formed by hydrolysis of the lipidic compound ([1]; all media): less than 1%; Release rate constant (Hixon-Crowell cube-root model) ([1]; fourth medium listed (presumably FeSSIF), r^2 = 0.933): 0.053 mg^1/3/h; Release rate constant (Hixon-Crowell cube-root model) ([1]; second medium listed (presumably FaSSIF), r^2 = 0.914): 0.036 mg^1/3/h; Release rate constant (Hixon-Crowell cube-root model) ([1]; third medium listed (presumably FeSSGF), r^2 = 0.879): 0.048 mg^1/3/h"
